Source: ChEMBL document CHEMBL2375309, “19-[(1'S,4'R)-4'-Hydroxy-1'-methoxy-2'-oxopentyl]geldanamycin, a natural geldanamycin analogue from Streptomyces hygroscopicus 17997” (J Nat Prod, 2013)
In brackets after ≈: the same amount, converted by molar mass.

Experiments:
[1] = Aqueous solubility of the compound; type: physicochemical
HepG2 = assay: Cytotoxicity against human HepG2 cells by MTT assay; type: functional, cell-based

solubility [1] [µg/mL]	Structure (SMILES)	IC50 (HepG2) [µM]
7700 (≈ 11.1 mM)	COC1=C2C[C@@H](C)C[C@H](OC)[C@H](O)[C@@H](C)/C=C(\C)[C@H](OC(N)=O)[C@@H](OC)CC/C=C(\C)C(=O)NC(=C([C@H](OC)C(=O)C[C@@H](C)O)C1=O)C2=O	22.4
15400 (≈ 22.3 mM)	COC1=C2C[C@@H](C)C[C@H](OC)[C@H](O)[C@@H](C)/C=C(\C)[C@H](OC(N)=O)[C@@H](OC)/C=C\C=C(/C)C(=O)NC(=C([C@H](OC)C(=O)C[C@@H](C)O)C1=O)C2=O	14.6
2 (≈ 0.00357 mM)	COC1=C2C[C@@H](C)C[C@H](OC)[C@H](O)[C@@H](C)/C=C(\C)[C@H](OC(N)=O)[C@@H](OC)/C=C\C=C(/C)C(=O)NC(=CC1=O)C2=O [GELDANAMYCIN]	0.3
